# Data from patent publication US20200131156A1, “ARYLSULFONYLPYROLECARBOXAMIDE DERIVATIVES AS Kv3 POTASSIUM CHANNEL ACTIVATORS” (H. Lundbeck A/S, priority 2018, published 2020).
# Target: T1, human Kv3.3 (Homo sapiens, UniProt Q14003)
# T1 construct: expressed in transfected cells
# T1 sequence (Q14003 1-757): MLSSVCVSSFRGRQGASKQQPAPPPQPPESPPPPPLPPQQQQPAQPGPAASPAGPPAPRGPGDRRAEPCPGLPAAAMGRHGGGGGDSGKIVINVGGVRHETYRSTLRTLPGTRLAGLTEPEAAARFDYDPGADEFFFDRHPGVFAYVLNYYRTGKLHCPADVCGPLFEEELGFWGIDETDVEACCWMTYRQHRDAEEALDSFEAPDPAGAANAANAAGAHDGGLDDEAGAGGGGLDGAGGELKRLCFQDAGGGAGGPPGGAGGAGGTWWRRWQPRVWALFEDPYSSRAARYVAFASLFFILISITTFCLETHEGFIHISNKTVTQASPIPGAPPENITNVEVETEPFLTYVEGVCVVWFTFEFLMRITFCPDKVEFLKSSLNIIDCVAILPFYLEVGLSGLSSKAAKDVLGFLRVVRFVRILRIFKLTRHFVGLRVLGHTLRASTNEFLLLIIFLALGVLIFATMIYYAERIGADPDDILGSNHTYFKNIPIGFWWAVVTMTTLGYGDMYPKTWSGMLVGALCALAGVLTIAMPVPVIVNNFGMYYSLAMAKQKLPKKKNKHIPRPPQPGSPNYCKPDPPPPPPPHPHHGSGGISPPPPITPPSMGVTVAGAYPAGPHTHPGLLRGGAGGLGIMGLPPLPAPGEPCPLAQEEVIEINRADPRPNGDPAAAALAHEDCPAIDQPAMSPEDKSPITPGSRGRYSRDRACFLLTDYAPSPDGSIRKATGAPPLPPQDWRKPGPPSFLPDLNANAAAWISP
# Experiment: Manual patch clamp electrophysiology, HEK-293 cells stably expressing human Kv3.3
# Type: cell-based
# Details: for hKv3.3 ECΔ30% increase: concentration increasing current by 30% at the −10 mV step; for hKv3.3 ECΔ5 mV: concentration that shifts activation threshold by 5 mV
# Method: Manual Patch Clamp Electrophysiological Evaluation, hKv3.1, hKv3.2, hKv3.3, hKv3.4:
# HEK-293 cells stably expressing human Kv3.1b, Kv3.2, Kv3.3 or Kv3.4 were used for the experiments.
# Kv3.1b, Kv3.2: Cells were cultured in MEM medium supplemented with 10% Fetal Bovine Serum, 1% Penicillin/Streptomycin, 2 mM glutamine and 0.6 mg/mL geneticin. Cells were grown to 80-90% confluency at 37° C. and 5% CO2 Kv3.3 or Kv3.4: Cells were cultured in DMEM medium supplemented with 10% Fetal Bovine Serum, 500 ug/mL Geneticidin and 1% Penicillin/Streptomycin. Cells were grown to 80-90% confluency at 37° C. and 5% CO2.
# On the day of the experiment the cells were detached by TrypLE and resuspended in culture medium. Cells were centrifuged, media removed and the cells were resuspended in extracellular buffer containing (in mM): 130 Na-gluconate, 20 NaCl, 4 KCl, 1 MgCl2, 1.8 CaCl2, 10 HEPES and 5 glucose, pH 7.3 adjusted with NaOH, 310-320 mOsm
# Patch-clamp recordings were performed using a manual patch-clamp system (Axon Multiclamp 700B, Digidata 1440, pCLAMP 10, Molecular Devices Corporation) with a fast perfusion system (RSC-160 Rapid solution Changer, BioLogic). Whole-cell recordings were carried out using an intracellular solution containing (in mM): 100 K-gluconate, 40 KCl, 10 HEPES, 1 EGTA, 1 MgCl2, pH 7.2 adjusted with KOH, 290-300 mOsm. Cell membrane potentials were held at −80 mV and current voltage-relationship was generated by voltage steps (50 ms duration) from −100 mV to +10 mV (in 10 mV increments) and then back to −100 mV for 50 ms, with inter-sweep interval of 3 s. The peak current amplitude of −10 mV was monitored until stable (<5% change) by using one step voltage protocol. One IV protocol was run as baseline, then compound perfusion was stared and peak current stability was monitored with single step protocol prior to the IV protocol. Single concentrations were measured per cell. Acceptable cells had seal resistance >500 MOhm, Access resistance <10 MOhm, and leak current <200 pA.
# Data analysis was performed using Clampfit (V10.2) in combination with Microsoft Excel™ (Redmond, Wash., USA). Current voltage relationships were plotted from the peak current (baseline subtracted) at the individual voltage steps normalized to the vehicle addition at 10 mV. The voltage threshold for channel activation was defined as 5% activation of the peak current at 10 mV in presence of vehicle. […] The concentration needed to shift the threshold 5 mV was readout from this curve (ECΔ5 mV), as well as the ability to increase the peak current at the −10 mV step (EC30% increase). […]
hKv3.3 ECΔ30% increase [µM],hKv3.3 ECΔ5 mV [µM],SMILES
2.7,2.7,"Cc1cnc(CNC(=O)c2ccn(S(=O)(=O)c3ccc(F)cc3C)c2)cn1 [Compound 90, 1-(4-fluoro-2-methylbenzene-1-sulfonyl)-N-[(5-methylpyrazin-2-yl)methyl]-1H-pyrrole-3-carboxamide]"
>30,4.9,"Cc1ccc(S(=O)(=O)n2ccc(C(=O)NCc3ncco3)c2)cc1 [Compound 86, 1-(4-methylbenzene-1-sulfonyl)-N-[(1,3-oxazol-2-yl)methyl]-1H-pyrrole-3-carboxamide]"
